Assay results from patent US12023333B2, “Phenyl-sulfamoyl.benzoyc acids as ERAP1 modulators” (GREY WOLF THERAPEUTICS LIMITED, priority 2019, dated 2024).

target: T1, Purified ERAP1(37-941)-10His (ERAP1) (Homo sapiens, UniProt Q9NZ08); experiment: ERAP1 mediated hydrolysis of an amide substrate measured in a biochemical system (10-mer decapeptide substrate); settings: 10-mer substrate, 23° C. for 1 h, excitation 279 nm and emission 355 nm; read-out: IC50 vs Decapeptide WRVYEKC(Dnp)ALK-acid (where Dnp is Dinitrophenyl maleimide) (10-mer)
T1 construct: Purified ERAP1(37-941)-10His (ERAP1); 10His (C)
Procedure: Biological Assay 1: ERAP1 Mediated Hydrolysis of an Amide Substrate Measured in a Biochemical System
1× Assay buffer (AB): 25 mM Bis-tris propane, 0.05% w/v Hydroxypropylmethylcellulose pH 7.75 made with Optima grade water
Decapeptide WRVYEKC(Dnp)ALK-acid (where Dnp is Dinitrophenyl maleimide) (10-mer) L-Leucine 7-amido-4-methylcoumarin (L-AMC)
12.5 μL ERAP1 enzyme in 1×AB was combined with 250 nL test compound in DMSO. 12.5 μL of either 240 μM L-AMC in 1×AB or 100 μM 10-mer in 1×AB was added to the reaction and incubated at 23° C. for 1 h. For detection, plates were read at excitation 365 nm and emission 442 nm (L-AMC) or excitation 279 nm and emission 355 nm (10-mer). Compound IC50 was determined using a 4 parameter equation.

T1 sequence (Q9NZ08 37-941): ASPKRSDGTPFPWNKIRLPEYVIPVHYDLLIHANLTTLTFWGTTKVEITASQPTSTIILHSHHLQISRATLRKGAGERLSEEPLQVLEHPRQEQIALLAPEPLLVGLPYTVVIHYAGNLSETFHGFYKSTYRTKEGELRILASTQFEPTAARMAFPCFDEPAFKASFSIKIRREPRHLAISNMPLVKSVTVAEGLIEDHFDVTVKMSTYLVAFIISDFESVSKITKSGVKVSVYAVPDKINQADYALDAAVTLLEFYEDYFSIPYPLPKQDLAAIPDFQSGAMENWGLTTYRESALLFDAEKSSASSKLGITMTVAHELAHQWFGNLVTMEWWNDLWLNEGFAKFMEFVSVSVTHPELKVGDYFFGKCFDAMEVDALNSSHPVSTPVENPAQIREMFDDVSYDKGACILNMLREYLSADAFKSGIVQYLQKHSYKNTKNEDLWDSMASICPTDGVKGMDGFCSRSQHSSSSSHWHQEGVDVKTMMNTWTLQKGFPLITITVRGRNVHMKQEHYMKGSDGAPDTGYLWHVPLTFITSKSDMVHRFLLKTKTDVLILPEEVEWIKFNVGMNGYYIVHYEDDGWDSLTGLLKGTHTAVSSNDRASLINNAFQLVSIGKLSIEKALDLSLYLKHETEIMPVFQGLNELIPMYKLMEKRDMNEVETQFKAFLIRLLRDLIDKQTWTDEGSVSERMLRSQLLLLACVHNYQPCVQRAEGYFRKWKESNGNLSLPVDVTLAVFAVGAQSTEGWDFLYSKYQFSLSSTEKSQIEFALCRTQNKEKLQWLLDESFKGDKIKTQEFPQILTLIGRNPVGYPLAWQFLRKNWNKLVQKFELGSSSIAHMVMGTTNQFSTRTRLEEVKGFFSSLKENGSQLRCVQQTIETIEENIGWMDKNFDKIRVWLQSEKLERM

| SMILES | IC50 |
| --- | --- |
| CCc1ccc(C(=O)O)cc1S(=O)(=O)Nc1cc(-n2cnnn2)ccc1-c1cccc(C#N)c1 [Example 56, 3-(N-(3′-cyano-4-tetrazol-1-yl-[1,1′-biphenyl]-2-yl)sulfamoyl)-4-ethylbenzoic acid] | < 0.5 µM |
| COc1ccc(C(=O)O)cc1S(=O)(=O)Nc1cc(C(F)(F)F)ccc1-c1ccccc1C [Example 8, 4-methoxy-3-(N-(2′-methyl-4-(trifluoromethyl)-[1,1′-biphenyl]-2-yl)sulfamoyl)benzoic acid] | < 0.5 µM |
| N#Cc1cc(NS(=O)(=O)c2cc(C(=O)O)ccc2C2CC2)c(-c2cscn2)cc1F [Example 196, 3-(N-(5-cyano-4-fluoro-2-(thiazol-4-yl)phenyl)sulfamoyl)-4-cyclopropylbenzoic acid] | < 0.5 µM |
| COc1ccc(C(=O)O)cc1S(=O)(=O)Nc1cc(C(F)(F)F)ccc1-c1cccnc1 [Example 2, 4-methoxy-3-(N-(2-(pyridin-3-yl)-5-(trifluoromethyl)phenyl)sulfamoyl)benzoic acid] | < 0.5 µM |
| CCc1ccc(C(=O)O)cc1S(=O)(=O)Nc1cc(C#N)ccc1-c1ccc(C#N)s1 [Example 118, 3-(N-(5-cyano-2-(5-cyanothiophen-2-yl)phenyl)sulfamoyl)-4-ethylbenzoic acid] | < 0.5 µM |
| CCc1ccc(C(=O)O)cc1S(=O)(=O)Nc1cc(C(F)(F)F)ccc1-c1cccc(F)c1 [Example 24, 4-ethyl-3-(N-(3′-fluoro-4-(trifluoromethyl)-[1,1′-biphenyl]-2-yl)sulfamoyl) benzoic acid] | < 0.5 µM |
| CCc1ccc(C(=O)O)cc1S(=O)(=O)Nc1cc(C(F)(F)F)ccc1-n1ccnc1 [Example 50, 3-(N-(2-(imidazol-1-yl)-5-(trifluoromethyl)phenyl)sulfamoyl)-4-ethylbenzoic acid] | < 0.5 µM |
| O=C(O)c1ccc(C2CC2)c(S(=O)(=O)Nc2cc(-c3ccns3)ccc2-c2cccc(F)c2)c1 [Example 137, 4-cyclopropyl-3-(N-(3′-fluoro-4-(isothiazol-5-yl)-[1,1′-biphenyl]-2-yl)sulfamoyl)benzoic acid] | < 0.5 µM |
| N#Cc1ccc(-c2ccccn2)c(NS(=O)(=O)c2cc(C(=O)O)ccc2C2CCC2)c1 [Example 168, 3-(N-(5-cyano-2-(pyridin-2-yl)phenyl)sulfamoyl)-4-cyclobutylbenzoic acid] | < 0.5 µM |
| COc1ccc(C(=O)O)cc1S(=O)(=O)Nc1cc(C#N)ccc1-c1cccs1 [Example 62, 3-(N-(5-cyano-2-(thiophen-2-yl)phenyl)sulfamoyl)-4-methoxybenzoic acid] | < 0.5 µM |
| COc1ccc(C(=O)O)cc1S(=O)(=O)Nc1cc(C#N)c(F)cc1-c1cccc(F)c1 [Example 112, 3-(N-(4-cyano-3′,5-difluoro-[1,1′-biphenyl]-2-yl)sulfamoyl)-4-methoxybenzoic acid] | < 0.5 µM |
| CCc1ccc(C(=O)O)cc1S(=O)(=O)Nc1cc(C#N)ccc1-c1ccc(Cl)s1 [Example 91, 3-(N-(2-(5-chlorothiophen-2-yl)-5-cyanophenyl)sulfamoyl)-4-ethylbenzoic acid] | < 0.5 µM |
| CCc1ccc(C(=O)O)cc1S(=O)(=O)Nc1cc(S(C)(=O)=O)ccc1-c1cccs1 [Example 34, 4-ethyl-3-(N-(5-(methylsulfonyl)-2-(thiophen-2-yl)phenyl)sulfamoyl) benzoic acid] | < 0.5 µM |
| Cc1ccc(-c2ccc(C(F)(F)F)cc2NS(=O)(=O)c2cc(C(=O)O)ccc2C2CC2)s1 [Example 86, 4-cyclopropyl-3-(N-(2-(5-methylthiophen-2-yl)-5-(trifluoromethyl)phenyl)sulfamoyl)benzoic acid] | < 0.5 µM |
| N#Cc1ccc(-c2nccs2)c(NS(=O)(=O)c2cc(C(=O)O)ccc2C2CC2)c1 [Example 163, 3-(N-(5-cyano-2-(thiazol-2-yl)phenyl)sulfamoyl)-4-cyclopropylbenzoic acid] | < 0.5 µM |
| CS(=O)(=O)c1ccc(-c2cccs2)c(NS(=O)(=O)c2cc(C(=O)O)ccc2C2CC2)c1 [Example 74, 4-cyclopropyl-3-(N-(5-(methylsulfonyl)-2-(thiophen-2-yl)phenyl)sulfamoyl) benzoic acid] | < 0.5 µM |
| COc1ccc(C(=O)O)cc1S(=O)(=O)Nc1cc(C#N)ccc1-c1ccc(C)s1 [Example 81, 3-(N-(5-cyano-2-(5-methylthiophen-2-yl)phenyl)sulfamoyl)-4-methoxybenzoic acid] | < 0.5 µM |
| CS(=O)(=O)c1ccc(-c2ccccn2)c(NS(=O)(=O)c2cc(C(=O)O)ccc2C2CC2)c1 [Example 82, 4-cyclopropyl-3-(N-(5-(methylsulfonyl)-2-(pyridin-2-yl)phenyl)sulfamoyl) benzoic acid] | < 0.5 µM |

| SMILES | IC50 |
| --- | --- |
| O=C(O)c1ccc(C2CC2)c(S(=O)(=O)Nc2cc(-c3ccns3)c(F)cc2-c2ccccn2)c1 [Example 184, 4-cyclopropyl-3-(N-(4-fluoro-5-(isothiazol-5-yl)-2-(pyridin-2-yl)phenyl)sulfamoyl)benzoic acid] | < 0.5 µM |
| O=C(O)c1ccc(C2CC2)c(S(=O)(=O)Nc2cc(C(F)(F)F)c(Cl)cc2-n2cccc2)c1 [Example 156, 3-(N-(4-chloro-2-(pyrrol-1-yl)-5-(trifluoromethyl)phenyl)sulfamoyl)-4-cyclopropylbenzoic acid] | < 0.5 µM |
| CCc1ccc(C(=O)O)cc1S(=O)(=O)Nc1cc(C(F)(F)F)ccc1-c1ccccn1 [Example 37, 4-ethyl-3-(N-(2-(pyridin-2-yl)-5-(trifluoromethyl)phenyl)sulfamoyl)benzoic acid] | < 0.5 µM |
| COc1ccc(C(=O)O)cc1S(=O)(=O)Nc1cc(C(F)(F)F)ccc1-n1cccc1 [Example 35, 3-(N-(2-(pyrrol-1-yl)-5-(trifluoromethyl)phenyl)sulfamoyl)-4-methoxybenzoic acid] | < 0.5 µM |
| CCc1ccc(C(=O)O)cc1S(=O)(=O)Nc1cc(S(C)(=O)=O)ccc1-c1cccnc1 [Example 54, 4-ethyl-3-(N-(5-(methylsulfonyl)-2-(pyridin-3-yl)phenyl)sulfamoyl) benzoic acid] | < 0.5 µM |
| O=C(O)c1ccc(C2CC2)c(S(=O)(=O)Nc2cc(C(F)(F)F)ccc2-n2cccc2)c1 [Example 99, 3-(N-(2-pyrrol-1-yl-5-(trifluoromethyl)phenyl)sulfamoyl)-4-cyclopropylbenzoic acid] | < 0.5 µM |
| Cn1nccc1-c1cc(NS(=O)(=O)c2cc(C(=O)O)ccc2C2CC2)c(-c2ccccn2)cc1Cl [Example 188, 3-(N-(4-chloro-5-(1-methylpyrazol-5-yl)-2-(pyridin-2-yl)phenyl)sulfamoyl)-4-cyclopropylbenzoic acid] | < 0.5 µM |
| O=C(O)c1ccc(C2CC2)c(S(=O)(=O)Nc2cc(-c3ccns3)ccc2-c2ccccc2)c1 [Example 135, 4-cyclopropyl-3-(N-(4-(isothiazol-5-yl)-[1,1′-biphenyl]-2-yl)sulfamoyl)benzoic acid] | < 0.5 µM |
| COc1ccc(C(=O)O)cc1S(=O)(=O)Nc1cc(C(F)(F)F)ccc1-c1ccc(Cl)cc1 [Example 49, 3-(N-(4′-chloro-4-(trifluoromethyl)-[1,1′-biphenyl]-2-yl)sulfamoyl)-4-methoxybenzoic acid] | < 0.5 µM |
| COc1ccccc1-c1ccc(C(F)(F)F)cc1NS(=O)(=O)c1cc(C(=O)O)ccc1OC [Example 11, 4-methoxy-3-(N-(2′-methoxy-4-(trifluoromethyl)-[1,1′-biphenyl]-2-yl)sulfamoyl)benzoic acid] | < 5 µM |
| N#Cc1ccc(-c2ccccn2)c(NS(=O)(=O)c2cc(C(=O)O)ccc2C2CC2)c1 [Example 83, 3-(N-(5-cyano-2-(pyridin-2-yl)phenyl)sulfamoyl)-4-cyclopropylbenzoic acid] | < 0.5 µM |
| N#Cc1ccc(-c2ccccc2)c(NS(=O)(=O)c2cc(C(=O)O)ccc2C2CC2)c1 [Example 96, 3-(N-(4-cyano-[1,1′-biphenyl]-2-yl)sulfamoyl)-4-cyclopropylbenzoic acid] | < 0.5 µM |
| O=C(O)c1ccc(C2CC2)c(S(=O)(=O)Nc2cc(C(F)(F)F)ccc2-c2ccc(Cl)s2)c1 [Example 113, 3-(N-(2-(5-chlorothiophen-2-yl)-5-(trifluoromethyl)phenyl)sulfamoyl)-4-cyclopropylbenzoic acid] | < 0.5 µM |
| Cc1ccc(-c2ccc(S(C)(=O)=O)cc2NS(=O)(=O)c2cc(C(=O)O)ccc2C2CC2)s1 [Example 103, 4-cyclopropyl-3-(N-(5-(methylsulfonyl)-2-(5-methylthiophen-2-yl)phenyl)sulfamoyl)benzoic acid] | < 0.5 µM |
| CS(=O)(=O)c1cc(NS(=O)(=O)c2cc(C(=O)O)ccc2C2CC2)c(-c2ccccn2)cc1Cl [Example 171, 3-(N-(4-chloro-5-(methylsulfonyl)-2-(pyridin-2-yl)phenyl)sulfamoyl)-4-cyclopropylbenzoic acid] | < 0.5 µM |
| Cc1cc(C#N)cc(NS(=O)(=O)c2cc(C(=O)O)ccc2C2CC2)c1-c1ccc(Cl)s1 [Example 177, 3-(N-(2-(5-chlorothiophen-2-yl)-5-cyano-3-methylphenyl)sulfamoyl)-4-cyclopropylbenzoic acid] | < 0.5 µM |
| N#Cc1cc(NS(=O)(=O)c2cc(C(=O)O)ccc2C2CC2)c(-c2ccc(Cl)s2)cc1F [Example 166, 3-(N-(2-(5-chlorothiophen-2-yl)-5-cyano-4-fluorophenyl)sulfamoyl)-4-cyclopropylbenzoic acid] | < 0.5 µM |
| O=C(O)c1ccc(C2CC2)c(S(=O)(=O)Nc2cc(-n3cnnn3)ccc2-n2cccc2)c1 [Example 208, 3-(N-(2-(pyrrol-1-yl)-5-(tetrazol-1-yl)phenyl)sulfamoyl)-4-cyclopropylbenzoic acid] | < 0.5 µM |
